Experimental data as given in PubChem BioAssay (NCI).
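Step 1: Grow cells in 96-well plates. Step 2: Expose to compound for 48 hours at 5 concentrations. Step 3: Interpolate endpoints linearly; if unreached, use highest concentration. Here, GI50 denotes the concentration required for 50% inhibition of growth. TGI: concentration producing complete growth inhibition.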

Experiments:
Test in all cases: NCI-60 cell line screen, 48 h
HL-60(TB) leukemia = test system: HL-60(TB) leukemia
SK-MEL-2 melanoma = test system: SK-MEL-2 melanoma
MALME-3M melanoma = test system: MALME-3M melanoma
NCI-H460 lung = test system: NCI-H460 lung
OVCAR-8 ovarian = test system: OVCAR-8 ovarian
HCT-15 colon = test system: HCT-15 colon
SNB-75 CNS = test system: SNB-75 CNS
MDA-MB-435 = test system: MDA-MB-435
MDA-MB-231 breast = test system: MDA-MB-231 breast
CAKI-1 renal = test system: CAKI-1 renal
PC-3 prostate = test system: PC-3 prostate
HT29 colon = test system: HT29 colon
RXF 393 renal = test system: RXF 393 renal
SF-268 CNS = test system: SF-268 CNS
U251 CNS = test system: U251 CNS
HS 578T breast = test system: HS 578T breast
COLO 205 colon = test system: COLO 205 colon
A498 renal = test system: A498 renal
K-562 leukemia = test system: K-562 leukemia
OVCAR-4 ovarian = test system: OVCAR-4 ovarian
SR leukemia = test system: SR leukemia
MOLT-4 leukemia = test system: MOLT-4 leukemia
KM12 colon = test system: KM12 colon
UO-31 renal = test system: UO-31 renal
SK-MEL-28 melanoma = test system: SK-MEL-28 melanoma
SF-539 CNS = test system: SF-539 CNS
EKVX NSCLC = test system: EKVX NSCLC
786-0 renal = test system: 786-0 renal
OVCAR-3 ovarian = test system: OVCAR-3 ovarian
UACC-257 melanoma = test system: UACC-257 melanoma
NCI/ADR-RES ovarian = test system: NCI/ADR-RES ovarian
RPMI-8226 leukemia = test system: RPMI-8226 leukemia
UACC-62 melanoma = test system: UACC-62 melanoma
A549 NSCLC = test system: A549 NSCLC
NCI-H522 lung = test system: NCI-H522 lung
TK-10 renal = test system: TK-10 renal
SNB-19 CNS = test system: SNB-19 CNS
SW-620 colon = test system: SW-620 colon
LOX IMVI melanoma = test system: LOX IMVI melanoma
IGROV1 ovarian = test system: IGROV1 ovarian
SK-MEL-5 melanoma = test system: SK-MEL-5 melanoma
NCI-H23 lung = test system: NCI-H23 lung
T-47D breast = test system: T-47D breast
SN12C renal = test system: SN12C renal
NCI-H226 lung = test system: NCI-H226 lung
MCF7 breast = test system: MCF7 breast
BT-549 breast = test system: BT-549 breast
CCRF-CEM leukemia = test system: CCRF-CEM leukemia
ACHN renal = test system: ACHN renal
DU-145 prostate = test system: DU-145 prostate
SK-OV-3 ovarian = test system: SK-OV-3 ovarian
HCC-2998 colon = test system: HCC-2998 colon
SF-295 CNS = test system: SF-295 CNS
M14 melanoma = test system: M14 melanoma
HCT-116 colon = test system: HCT-116 colon
HOP-62 NSCLC = test system: HOP-62 NSCLC
HOP-92 NSCLC = test system: HOP-92 NSCLC
OVCAR-5 ovarian = test system: OVCAR-5 ovarian

With `Cc1cc2nc(CS)[nH]c2cc1C` the GI50 (HL-60(TB) leukemia) was 12.4 µM, the TGI (HL-60(TB) leukemia) was > 100 µM and the GI50 (SK-MEL-2 melanoma) was 15.7 µM. The TGI (SK-MEL-2 melanoma) was 34.7 µM, the GI50 (MALME-3M melanoma) was 13.4 µM and the TGI (MALME-3M melanoma) was 32 µM. For the same molecule, the GI50 (NCI-H460 lung) was 18.7 µM, the TGI (NCI-H460 lung) was 54.6 µM and the GI50 (OVCAR-8 ovarian) was 20.2 µM. The TGI (OVCAR-8 ovarian) was 50.6 µM, the GI50 (HCT-15 colon) was 18.6 µM and the TGI (HCT-15 colon) was 43.7 µM. For the same molecule, the GI50 (SNB-75 CNS) was 14.9 µM, the TGI (SNB-75 CNS) was 33.9 µM and the GI50 (MDA-MB-435) was 14.4 µM. It also gave a TGI (MDA-MB-435) of 28.7 µM, a GI50 (MDA-MB-231 breast) of 20.2 µM and a TGI (MDA-MB-231 breast) of 50 µM. The GI50 (CAKI-1 renal) was 16.9 µM, the TGI (CAKI-1 renal) was 35.9 µM and the GI50 (PC-3 prostate) was 16.1 µM. It also gave a TGI (PC-3 prostate) of 46.4 µM, a GI50 (HT29 colon) of 6.39 µM and a TGI (HT29 colon) of 22.7 µM. The GI50 (RXF 393 renal) was 17.5 µM, the TGI (RXF 393 renal) was 31.6 µM and the GI50 (SF-268 CNS) was 20.5 µM. It also gave a TGI (SF-268 CNS) of 57.5 µM, a GI50 (U251 CNS) of 14 µM and a TGI (U251 CNS) of 30 µM. For the same molecule, the GI50 (HS 578T breast) was 23.3 µM, the TGI (HS 578T breast) was 85.5 µM and the GI50 (COLO 205 colon) was 23.6 µM. The TGI (COLO 205 colon) was 98.5 µM, the GI50 (A498 renal) was 18.9 µM and the TGI (A498 renal) was > 100 µM. The GI50 (K-562 leukemia) was 22.4 µM, the TGI (K-562 leukemia) was 67.3 µM and the GI50 (OVCAR-4 ovarian) was 13.1 µM. The TGI (OVCAR-4 ovarian) was 32 µM, the GI50 (SR leukemia) was 6.69 µM and the TGI (SR leukemia) was 37.6 µM. The GI50 (MOLT-4 leukemia) was 2.85 µM, the TGI (MOLT-4 leukemia) was 8.53 µM and the GI50 (KM12 colon) was 15.8 µM. For the same molecule, the TGI (KM12 colon) was 32.2 µM, the GI50 (UO-31 renal) was 14.2 µM and the TGI (UO-31 renal) was 28.1 µM. It also gave a GI50 (SK-MEL-28 melanoma) of 15.5 µM, a TGI (SK-MEL-28 melanoma) of 32.2 µM and a GI50 (SF-539 CNS) of 20.5 µM. For the same molecule, the TGI (SF-539 CNS) was 45 µM, the GI50 (EKVX NSCLC) was 25.1 µM and the TGI (EKVX NSCLC) was > 100 µM. It also gave a GI50 (786-0 renal) of 17.7 µM, a TGI (786-0 renal) of 34.3 µM and a GI50 (OVCAR-3 ovarian) of 14.4 µM. For the same molecule, the TGI (OVCAR-3 ovarian) was 27.9 µM, the GI50 (UACC-257 melanoma) was 20.9 µM and the TGI (UACC-257 melanoma) was 54 µM. For the same molecule, the GI50 (NCI/ADR-RES ovarian) was 22.8 µM, the TGI (NCI/ADR-RES ovarian) was 95.4 µM and the GI50 (RPMI-8226 leukemia) was 14.3 µM. For the same molecule, the TGI (RPMI-8226 leukemia) was 40.7 µM, the GI50 (UACC-62 melanoma) was 13.6 µM and the TGI (UACC-62 melanoma) was 28.2 µM. For the same molecule, the GI50 (A549 NSCLC) was 36.8 µM, the TGI (A549 NSCLC) was > 100 µM and the GI50 (NCI-H522 lung) was 3.48 µM. It also gave a TGI (NCI-H522 lung) of 19.4 µM, a GI50 (TK-10 renal) of 15 µM and a TGI (TK-10 renal) of 29.7 µM. The GI50 (SNB-19 CNS) was 27.6 µM, the TGI (SNB-19 CNS) was > 100 µM and the GI50 (SW-620 colon) was 13 µM. It also gave a TGI (SW-620 colon) of 30.9 µM, a GI50 (LOX IMVI melanoma) of 12.7 µM and a TGI (LOX IMVI melanoma) of 30.6 µM. It also gave a GI50 (IGROV1 ovarian) of 16.7 µM, a TGI (IGROV1 ovarian) of 34.1 µM and a GI50 (SK-MEL-5 melanoma) of 13.7 µM. For the same molecule, the TGI (SK-MEL-5 melanoma) was 27.2 µM, the GI50 (NCI-H23 lung) was 28.8 µM and the TGI (NCI-H23 lung) was > 100 µM. The GI50 (T-47D breast) was 15.6 µM, the TGI (T-47D breast) was 37.5 µM and the GI50 (SN12C renal) was 25.1 µM. It also gave a TGI (SN12C renal) of 71.3 µM, a GI50 (NCI-H226 lung) of 14 µM and a TGI (NCI-H226 lung) of 28.7 µM. For the same molecule, the GI50 (MCF7 breast) was 14.7 µM, the TGI (MCF7 breast) was 31.2 µM and the GI50 (BT-549 breast) was 24.5 µM. It also gave a TGI (BT-549 breast) of 66.5 µM, a GI50 (CCRF-CEM leukemia) of 5.44 µM and a TGI (CCRF-CEM leukemia) of 75.1 µM. It also gave a GI50 (ACHN renal) of 15.4 µM, a TGI (ACHN renal) of 30.6 µM and a GI50 (DU-145 prostate) of 20.8 µM. For the same molecule, the TGI (DU-145 prostate) was 48.5 µM, the GI50 (SK-OV-3 ovarian) was 37.5 µM and the TGI (SK-OV-3 ovarian) was > 100 µM. For the same molecule, the GI50 (HCC-2998 colon) was 22.9 µM, the TGI (HCC-2998 colon) was 66.2 µM and the GI50 (SF-295 CNS) was 5.35 µM. For the same molecule, the TGI (SF-295 CNS) was 25 µM, the GI50 (M14 melanoma) was 15.3 µM and the TGI (M14 melanoma) was 36.8 µM. The GI50 (HCT-116 colon) was 14.9 µM, the TGI (HCT-116 colon) was 29.4 µM and the GI50 (HOP-62 NSCLC) was 15.2 µM. The TGI (HOP-62 NSCLC) was 30.7 µM, the GI50 (HOP-92 NSCLC) was 18.8 µM and the TGI (HOP-92 NSCLC) was 76.3 µM. It also gave a GI50 (OVCAR-5 ovarian) of 21.4 µM and a TGI (OVCAR-5 ovarian) of 43.5 µM.
